In patent US5591714A, “Derivatives of A82846” (priority 1994, dated 1997):
≈ marks a conversion by molar mass, not a printed value.

Assays:
[1] = test system: Enterococcus faecalis 2041; experiment: MIC, standard agar-dilution assay; format: cell-based
Method: (§1) The formula I compounds have in vitro and in vivo activity against Gram-positive pathogenic bacteria. The MIC's were determined using a standard agar-dilution assays.
^c Formerly Streptococcus faecalis 2041

[2] = test system: vancomycin-resistant (Vanco^r) E. faecium and E. faecalis; experiment: Susceptibility of vancomycin-resistant enterococci, agar-dilution MIC; format: cell-based
Method: (§2) End points were read after 24-hour incubation. The ratio was calculated by dividing the mean MIC of the compound against the vancomycin-resistant strains by the mean MIC of the compound against the vancomycin-susceptible strains.

[3] = test system: Streptococcus pneumoniae Park 1; format: cell-based
Method: as §1

[4] = test system: Staphylococcus aureus S13E; format: cell-based
Method: as §1

Streptococcus pneumoniae = experiment: In vivo activity, experimentally infected mice (ED50); details: Streptococcus pneumoniae infection; doses administered subcutaneously to mice 1 and 4 hours postinfection
[5] = test system: Staphylococcus epidermidis 222; experiment: MIC, standard agar-dilution assay; format: cell-based
Method: as §1

[6] = test system: Staphylococcus aureus X400; experiment: MIC, standard agar-dilution assay; format: cell-based
Method: as §1

Escherichia coli TEM = experiment: MIC, standard agar-dilution assay; format: cell-based
Method: as §1

[7] = test system: Haemophilus influenzae 76; experiment: MIC, standard agar-dilution assay; format: cell-based
Method: as §1

[8] = test system: Klebsiella pneumoniae X26; experiment: MIC, standard agar-dilution assay; format: cell-based
Method: as §1

Escherichia coli N10 = experiment: MIC, standard agar-dilution assay; format: cell-based
Method: as §1

[9] = test system: Streptococcus pyogenes C203; experiment: MIC, standard agar-dilution assay; format: cell-based
Method: as §1

[10] = test system: Klebsiella pneumoniae X68; experiment: MIC, standard agar-dilution assay; format: cell-based
Method: as §1

[11] = test system: Staphylococcus epidermidis EPI270; experiment: MIC, standard agar-dilution assay; format: cell-based
Method: as §1

[12] = test system: Haemophilus influenzae C.L.; experiment: MIC, standard agar-dilution assay; format: cell-based
Method: as §1

Escherichia coli EC14 = experiment: MIC, standard agar-dilution assay; format: cell-based
Method: as §1

[13] = test system: Klebsiella pneumoniae KAE; experiment: MIC, standard agar-dilution assay; format: cell-based
Method: as §1

[14] = test system: Staphylococcus aureus V41; experiment: MIC, standard agar-dilution assay; format: cell-based
Method: as §1

[15] = test system: Staphylococcus aureus NRRL X1.1; experiment: MIC, standard agar-dilution assay; format: cell-based
Method: as §1

[16] = test system: vancomycin-susceptible (Vanco^s) E. faecium and E. faecalis; experiment: Susceptibility of vancomycin-susceptible enterococci, agar-dilution MIC; format: cell-based; details: n = 34 strains; end points read after 24-hour incubation
Method: as §2

Staphylococcus aureus = experiment: In vivo activity, experimentally infected mice (ED50); details: Staphylococcus aureus infection; doses administered subcutaneously to mice 1 and 4 hours postinfection
Streptococcus pyogenes = experiment: as above; details: Streptococcus pyogenes infection; doses administered subcutaneously to mice 1 and 4 hours postinfection
Enterococcus faecium X66 = experiment: MIC, standard agar-dilution assay; format: cell-based
Method: as §1
^b Formerly Streptococcus faecium X66

SMILES | MIC [1] | MIC [3] | MIC [4] | ED50 (Streptococcus pneumoniae) | MIC [5] | MIC [6] | MIC (Escherichia coli TEM) | MIC [7] | MIC [8] | MIC (Escherichia coli N10) | MIC [9] | MIC [10] | MIC [11] | MIC [12] | MIC (Escherichia coli EC14) | MIC [13] | MIC [14] | MIC [15] | ED50 (Staphylococcus aureus) | ED50 (Streptococcus pyogenes) | further results
CCCCCCCCN[C@@]1(C)C[C@H](O[C@H]2[C@H](Oc3c4cc5cc3Oc3ccc(cc3Cl)[C@@H](O)[C@@H](NC(=O)[C@@H](CC(C)C)NC)C(=O)N[C@@H](CC(N)=O)C(=O)N[C@H]5C(=O)N[C@H]3C(=O)N[C@H](C(=O)N[C@H](C(=O)O)c5cc(O)cc(O)c5-c5cc3ccc5O)[C@H](O[C@H]3C[C@](C)(N)[C@@H](O)[C@H](C)O3)c3ccc(cc3)O4)O[C@H](CO)[C@@H](O)[C@@H]2O)O[C@@H](C)[C@@H]1O [Compound 1] | 1 µg/mL (≈ 0.599 µM) | .5 µg/mL (≈ 0.299 µM) | .5 µg/mL (≈ 0.299 µM) | 0.43 mg/kg/2 | 1 µg/mL (≈ 0.599 µM) | 1 µg/mL (≈ 0.599 µM) | > 128 µg/mL | > 128 µg/mL | > 128 µg/mL | > 128 µg/mL | .25 µg/mL (≈ 0.15 µM) | > 128 µg/mL | 1 µg/mL (≈ 0.599 µM) | > 128 µg/mL | > 128 µg/mL | > 128 µg/mL | 1 µg/mL (≈ 0.599 µM) | 1 µg/mL (≈ 0.599 µM) | 3.35 mg/kg/2 | 0.43 mg/kg/2 | Ratio (mean MIC vancomycin-resistant strains / mean MIC vancomycin-susceptible strains) [2]: 4.9; Geometric Mean MIC, Vanco^r Strains ([2]; n = 25 strains, end points read after 24-hour incubation): 9.7 µg/mL; Geometric Mean MIC, Vanco^s Strains [16]: 2.2 µg/mL; MIC (Enterococcus faecium X66): 1 µg/mL (≈ 0.599 µM)
CNC(CC(C)C)C(=O)NC1C(=O)NC(CC(N)=O)C(=O)NC2C(=O)NC3C(=O)NC(C(=O)NC(C(=O)O)c4cc(O)cc(O)c4-c4cc3ccc4O)C(OC3CC(C)(N)C(O)C(C)O3)c3ccc(c(Cl)c3)Oc3cc2cc(c3OC2OC(CO)C(O)C(O)C2OC2CC(C)(NCc3ccccc3)C(O)C(C)O2)Oc2ccc(cc2Cl)C1O (stereo not drawn) [Compound 51] | .5 µg/mL (≈ 0.297 µM) | .125 µg/mL (≈ 0.0743 µM) | .25 µg/mL (≈ 0.149 µM) | 0.35 mg/kg/2 | .5 µg/mL (≈ 0.297 µM) | .5 µg/mL (≈ 0.297 µM) | > 128 µg/mL | > 128 µg/mL | > 128 µg/mL | > 128 µg/mL | .25 µg/mL (≈ 0.149 µM) | > 128 µg/mL | 1 µg/mL (≈ 0.594 µM) | > 128 µg/mL | > 128 µg/mL | > 128 µg/mL | .5 µg/mL (≈ 0.297 µM) | .25 µg/mL (≈ 0.149 µM) | 0.34 mg/kg/2 | 0.16 mg/kg/2 | MIC (Enterococcus faecium X66): .25 µg/mL (≈ 0.149 µM)
CNC(CC(C)C)C(=O)NC1C(=O)NC(CC(N)=O)C(=O)NC2C(=O)NC3C(=O)NC(C(=O)NC(C(=O)O)c4cc(O)cc(O)c4-c4cc3ccc4O)C(OC3CC(C)(N)C(O)C(C)O3)c3ccc(c(Cl)c3)Oc3cc2cc(c3OC2OC(CO)C(O)C(O)C2OC2CC(C)(NCc3ccccc3Cl)C(O)C(C)O2)Oc2ccc(cc2Cl)C1O (stereo not drawn) [Compound 62] | .5 µg/mL (≈ 0.291 µM) | .125 µg/mL (≈ 0.0728 µM) | 1 µg/mL (≈ 0.582 µM) | 0.17 mg/kg/2 | .5 µg/mL (≈ 0.291 µM) | 1 µg/mL (≈ 0.582 µM) | > 128 µg/mL | > 128 µg/mL | > 128 µg/mL | > 128 µg/mL | .125 µg/mL (≈ 0.0728 µM) | > 128 µg/mL | 1 µg/mL (≈ 0.582 µM) | > 128 µg/mL | > 128 µg/mL | > 128 µg/mL | .5 µg/mL (≈ 0.291 µM) | .5 µg/mL (≈ 0.291 µM) | 0.77 mg/kg/2 | 0.20 mg/kg/2 | MIC (Enterococcus faecium X66): .25 µg/mL (≈ 0.146 µM)
CNC(CC(C)C)C(=O)NC1C(=O)NC(CC(N)=O)C(=O)NC2C(=O)NC3C(=O)NC(C(=O)NC(C(=O)O)c4cc(O)cc(O)c4-c4cc3ccc4O)C(OC3CC(C)(N)C(O)C(C)O3)c3ccc(c(Cl)c3)Oc3cc2cc(c3OC2OC(CO)C(O)C(O)C2OC2CC(C)(NCc3cccc(Cl)c3)C(O)C(C)O2)Oc2ccc(cc2Cl)C1O (stereo not drawn) [Compound 64] | .25 µg/mL (≈ 0.146 µM) | .25 µg/mL (≈ 0.146 µM) | .5 µg/mL (≈ 0.291 µM) | 0.10 mg/kg/2 | .5 µg/mL (≈ 0.291 µM) | .5 µg/mL (≈ 0.291 µM) | > 128 µg/mL | > 128 µg/mL | > 128 µg/mL | > 128 µg/mL | .06 µg/mL (≈ 0.0349 µM) | > 128 µg/mL | .25 µg/mL (≈ 0.146 µM) | > 128 µg/mL | > 128 µg/mL | > 128 µg/mL | .25 µg/mL (≈ 0.146 µM) | .25 µg/mL (≈ 0.146 µM) | 0.55 mg/kg/2 | 0.94 mg/kg/2 | MIC (Enterococcus faecium X66): .25 µg/mL (≈ 0.146 µM)
CNC(CC(C)C)C(=O)NC1C(=O)NC(CC(N)=O)C(=O)NC2C(=O)NC3C(=O)NC(C(=O)NC(C(=O)O)c4cc(O)cc(O)c4-c4cc3ccc4O)C(OC3CC(C)(NCc4ccccc4)C(O)C(C)O3)c3ccc(cc3)Oc3cc2cc(c3OC2OC(CO)C(O)C(O)C2O)Oc2ccc(cc2Cl)C1O (stereo not drawn) [Compound 70] | 2 µg/mL (≈ 1.33 µM) | 2 µg/mL (≈ 1.33 µM) | 2 µg/mL (≈ 1.33 µM) | 3.76 mg/kg/2 | 2 µg/mL (≈ 1.33 µM) | 2 µg/mL (≈ 1.33 µM) | > 128 µg/mL | > 128 µg/mL | > 128 µg/mL | > 128 µg/mL | 2 µg/mL (≈ 1.33 µM) | > 128 µg/mL | .5 µg/mL (≈ 0.332 µM) | > 128 µg/mL | > 128 µg/mL | > 128 µg/mL | 2 µg/mL (≈ 1.33 µM) | 2 µg/mL (≈ 1.33 µM) | 4.10 mg/kg/2 | 2.38 mg/kg/2 | MIC (Enterococcus faecium X66): 2 µg/mL (≈ 1.33 µM)
CNC(CC(C)C)C(=O)NC1C(=O)NC(CC(N)=O)C(=O)NC2C(=O)NC3C(=O)NC(C(=O)NC(C(=O)O)c4cc(O)cc(O)c4-c4cc3ccc4O)C(OC3CC(C)(NCc4ccccc4)C(O)C(C)O3)c3ccc(cc3)Oc3cc2cc(c3O)Oc2ccc(cc2Cl)C1O (stereo not drawn) [Compound 73] | 2 µg/mL (≈ 1.49 µM) | 1 µg/mL (≈ 0.745 µM) | 1 µg/mL (≈ 0.745 µM) | > 8.0 mg/kg/2 | 2 µg/mL (≈ 1.49 µM) | 1 µg/mL (≈ 0.745 µM) | > 128 µg/mL | > 64 µg/mL | > 128 µg/mL | > 128 µg/mL | 1 µg/mL (≈ 0.745 µM) | > 128 µg/mL | .25 µg/mL (≈ 0.186 µM) | > 128 µg/mL | > 128 µg/mL | > 128 µg/mL | 1 µg/mL (≈ 0.745 µM) | 1 µg/mL (≈ 0.745 µM) | > 8.0 mg/kg/2 | 7.30 mg/kg/2 | MIC (Enterococcus faecium X66): 1 µg/mL (≈ 0.745 µM)
CNC(CC(C)C)C(=O)NC1C(=O)NC(CC(N)=O)C(=O)NC2C(=O)NC3C(=O)NC(C(=O)NC(C(=O)O)c4cc(O)cc(O)c4-c4cc3ccc4O)C(OC3CC(C)(NCc4ccccc4)C(O)C(C)O3)c3ccc(c(Cl)c3)Oc3cc2cc(c3OC2OC(CO)C(O)C(O)C2O)Oc2ccc(cc2Cl)C1O (stereo not drawn) [Compound 76] | 1 µg/mL (≈ 0.65 µM) | 1 µg/mL (≈ 0.65 µM) | .25 µg/mL (≈ 0.162 µM) | 0.42 mg/kg/2 | .5 µg/mL (≈ 0.325 µM) | .25 µg/mL (≈ 0.162 µM) | > 128 µg/mL | > 128 µg/mL | > 128 µg/mL | > 128 µg/mL | .5 µg/mL (≈ 0.325 µM) | > 128 µg/mL | 2 µg/mL (≈ 1.3 µM) | > 128 µg/mL | > 128 µg/mL | > 128 µg/mL | .25 µg/mL (≈ 0.162 µM) | .25 µg/mL (≈ 0.162 µM) | 0.87 mg/kg/2 | 0.62 mg/kg/2 | MIC (Enterococcus faecium X66): 1 µg/mL (≈ 0.65 µM)
